# Results: patent publication US11072812B2, “Substrates for covalent tethering of proteins to functional groups or solid surfaces” (PROMEGA CORPORATION, priority 2013, dated 2021)
# Assays:
# [1] = system: intracellular HDAC activity; experiment: Intracellular HDAC activity, non-lytic HDAC-Glo I/II assay in HEK293 and K562 cells; assay type: cell-based; conditions: PBI-5040 relative to SAHA, 2 h
# Protocol: HEK293 cells were plated into a 96-well plate at 1×10^5 cell/ml, and 24 h later, the media was replaced with serum free media. K562 cells were plated in serum free media (96-well plate) at 2×10^5 cells/ml.
# HaloTag® protein [2] = experiment: Binding efficiency/kinetics to HaloTag protein in cell lysate (chase with fluorescent HaloTag ligand, SDS-PAGE); conditions: SAHA-chloroalkane conjugates, 1 μM, 0-60 min; compared with PBI-5231 (O6)
# Protocol: (§1) a) Binding efficiency to HaloTag® protein in lysate was measured by adding the methotrexate-chloroalkane conjugates to lysate from cells expressing a HaloTag® protein to a final concentration of 1 μM. Following 0-60 mins of binding, the reactions were chased with 1 μM fluorescent HaloTag® ligand. Unbound HaloTag® protein was detected through binding to the fluorescent HaloTag® ligand followed by analysis on SDS-PAGE gel and detection on a fluorescent gel scanner.
# as §1, with “adding the dexamethasone-chloroalkane conjugates to” for “adding the methotrexate-chloroalkane conjugates to”, “the fluorescent HaloTag ligand followed” for “the fluorescent HaloTag® ligand followed”
# a) Binding kinetics to HaloTag® protein in cell lysate was measured by adding the modified BIRB796-chloroalkane conjugates to lysate from cells expressing a HaloTag® protein at a final concentration of 1 μM. After 0-60 min of binding, the reactions were chased with 1 μM fluorescent HaloTag® ligand (Promega Corporation). Unbound HaloTag® protein was detected through binding to the fluorescent HaloTag® ligand followed by analysis on SDS-PAGE and detection on a fluorescent gel scanner.
# Following 0-60 min of binding, the reactions were chased with 1 μM fluorescent HaloTag® ligand. Unbound HaloTag® protein was detected through binding to the fluorescent HaloTag® ligand followed by analysis on SDS-PAGE and detection on a fluorescent gel scanner.
# a) Binding kinetics to HaloTag® protein in cell lysate was measured by adding the dasatinib-chloroalkane conjugates to lysate (final concentration of 1 μM) from cells expressing a HaloTag® protein. Following 0-60 min of binding, the reactions were chased with 1 μM fluorescent HaloTag® ligand. Unbound HaloTag® protein was detected through binding to the fluorescent HaloTag® ligand followed by analysis on SDS-PAGE and detection on a fluorescent gel scanner.
# HaloTag® protein [3] = experiment: Binding efficiency/kinetics to HaloTag protein in cells (cell permeability; chase with fluorescent HaloTag ligand, SDS-PAGE); assay type: cell-based; conditions: SAHA-chloroalkane conjugates, 10 μM, 0-180 min; HaloTag localized to cytoplasm or nucleus; compared with PBI-5231 (O6)
# Protocol: b) Binding efficiency to HaloTag® protein in cells was measured by adding the methotrexate-chloroalkane conjugates to cells expressing a HaloTag® protein to a final concentration of 10 μM. Following 0-120 mins of binding, the reactions were chased with 5 μM fluorescent HaloTag® ligand. Unbound HaloTag® protein was detected through binding to the fluorescent HaloTag® ligand followed by cell lysis, analysis on a SDS-PAGE gel and detection on a fluorescent gel scanner.
# b) Binding efficiency to HaloTag® protein in cells was measured by adding the dexamethasone-chloroalkane conjugates to cells expressing a HaloTag® protein to a final concentration of 10 μM. Following 0-60 mins of binding, the reaction was chased with 5 μM fluorescent HaloTag ligand. Unbound HaloTag® protein was detected through binding to the fluorescent HaloTag® ligand followed by cell lysis, analysis on SDS-PAGE gel and detection on a fluorescent gel scanner.
# b) Binding kinetics to HaloTag® protein in cells was measured by adding the modified BIRB796-chloroalkane conjugates to cells expressing a HaloTag® protein at a final concentration of 10 μM. Following 0-60 min of binding, the reactions were chased with 5 μM fluorescent HaloTag® ligand. Unbound HaloTag® protein was detected through binding to the fluorescent HaloTag® ligand followed by cell lysis, analysis on SDS-PAGE and detection on a fluorescent gel scanner.
# Following 0-180 min of binding, the reactions were chased with 5 μM fluorescent HaloTag® ligand. Unbound HaloTag® protein was detected through binding to the fluorescent HaloTag® ligand followed by cell lysis, analysis on SDS-PAGE and detection on a fluorescent gel scanner.
# b) Binding kinetics to HaloTag® protein in cells was measured by adding the dasatinib-chloroalkane conjugates (final concentration of 10 μM) to cells expressing a HaloTag protein which localized to the cytoplasm or the nucleus. Following 0-90 min of binding, the reactions were chased with 5 μM fluorescent HaloTag® ligand. Unbound HaloTag® protein was detected through binding to the fluorescent HaloTag® ligand followed by cell lysis, analysis on SDS-PAGE and detection on a fluorescent gel scanner.
# [4] = system: all known target of SAHA (HDAC1, HDAC2, HDAC3, HDAC6, HDAC8, HDAC10); experiment: Pull-down of endogenous targets from K562 cells onto HaloTag protein beads, Western blot and mass spec analysis; assay type: cell-based
# Protocol: K562 cells were plated into 150 mm dishes at 1.66×10^6 cell/ml (total of 5×10^7 cells per dish). […] Following equilibrium binding of 2 h, the media was removed; cells were quickly washed with PBS; cells lysed in a detergent-based lysis buffer for 10 min and centrifuged at 3000×g for 1 min. Clear lysates were then added to 75 ul of settled paramagnetic HaloTag® protein beads and incubated with shaking for 15 min. […] The released targets were subjected to mass spec analysis (FIG. 14B) as well as western blot analysis (FIG. 14A) with anti-HDAC1 antibody (ABCAM), anti-HDAC2 antibody (ABCAM), anti-HDAC6 antibody (Millipore), anti-HDAC3 antibody (Thermo Fisher), anti-HDAC10 (ABCAM) and anti-HDAC8 antibody (Rockland).
structure (smiles),measurement,setting,value
"O=C(CCCCCCC(=O)Nc1ccc(CNC(=O)OCCOCCOCCOC(=O)NCCOCCOCCCCCCCl)cc1)NO [PBI-5040, SAHA-Carbamate]",reduction in SAHA potency due to the chloroalkane modification,[1],~2 fold
same,binding kinetics to HaloTag protein in cell lysate,HaloTag® protein [2],significantly faster binding kinetics
same,permeability/binding kinetics to HaloTag protein in cells,HaloTag® protein [3],significantly faster permeability/binding kinetics
same,pull-down of endogenous SAHA targets incl. low affinity (HDAC8) and low abundance (HDAC3) target,"[4]; 20 uM, 2 h, beads 15 min, release with 400 μM SAHA",specifically pulled down
same,cellular permeability,[4]; inferred from pull down of nuclear (HDAC1) and cytoplasmic (HDAC 6) proteins,high
